{"source": "patent US20100261162A1", "about": "“Methods of assaying for telomerase activity and compositions related to same” (priority 2005, published 2010)", "target": "T1, telomerase (HEK293T cell lysates) (Homo sapiens, UniProt O14746)", "T1 construct": "effect of TBT oligonucleotide length in HEK293T cell lysates; endogenous in cells; host or cells: HEK293T cell lysate (CHAPS lysis)", "T1 sequence (O14746 whole entry)": "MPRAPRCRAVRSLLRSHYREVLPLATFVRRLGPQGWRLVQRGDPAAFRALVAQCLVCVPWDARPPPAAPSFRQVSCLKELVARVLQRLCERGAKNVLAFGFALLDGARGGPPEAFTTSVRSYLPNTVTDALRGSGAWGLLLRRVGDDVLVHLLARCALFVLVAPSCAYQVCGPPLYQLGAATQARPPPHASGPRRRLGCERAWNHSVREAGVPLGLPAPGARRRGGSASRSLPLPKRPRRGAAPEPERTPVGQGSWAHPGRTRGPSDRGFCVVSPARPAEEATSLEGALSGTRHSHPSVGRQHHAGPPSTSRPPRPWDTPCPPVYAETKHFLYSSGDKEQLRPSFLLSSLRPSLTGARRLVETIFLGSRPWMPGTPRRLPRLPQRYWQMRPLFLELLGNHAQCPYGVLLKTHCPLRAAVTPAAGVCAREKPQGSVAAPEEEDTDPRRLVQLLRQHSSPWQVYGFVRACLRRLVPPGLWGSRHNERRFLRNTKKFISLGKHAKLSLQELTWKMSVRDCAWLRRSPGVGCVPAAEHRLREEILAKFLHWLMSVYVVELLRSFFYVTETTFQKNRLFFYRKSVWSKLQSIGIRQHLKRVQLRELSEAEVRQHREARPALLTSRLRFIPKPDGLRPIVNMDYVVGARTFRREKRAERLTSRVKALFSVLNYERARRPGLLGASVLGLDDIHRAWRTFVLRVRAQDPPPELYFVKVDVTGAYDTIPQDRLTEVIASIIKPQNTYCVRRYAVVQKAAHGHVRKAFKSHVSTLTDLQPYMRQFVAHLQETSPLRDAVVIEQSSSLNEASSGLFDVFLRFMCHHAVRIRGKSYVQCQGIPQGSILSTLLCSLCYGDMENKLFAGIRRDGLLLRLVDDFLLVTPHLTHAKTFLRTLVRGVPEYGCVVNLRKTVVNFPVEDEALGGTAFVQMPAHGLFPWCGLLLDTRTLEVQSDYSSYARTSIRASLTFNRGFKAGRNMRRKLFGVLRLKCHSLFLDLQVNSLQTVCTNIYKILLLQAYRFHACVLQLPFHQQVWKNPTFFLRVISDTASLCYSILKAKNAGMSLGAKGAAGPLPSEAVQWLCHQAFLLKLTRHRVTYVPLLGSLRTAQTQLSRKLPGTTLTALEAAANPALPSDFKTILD", "assay": "TBT assay, effect of telomerase oligonucleotide template length", "type": "biochemical", "conditions": "TBT luminescence, short (0.5 repeat), 2.5 repeat and 3.5 repeat oligonucleotides compared", "description": "FIG. 16 illustrates a graphical representation showing the effect of TBT oligonucleotide length in HEK293T cell lysates according to an embodiment of the present invention.\nDesign of the telomerase-specific oligonucleotide template attached to the magnetic bead is critical for maximizing sensitivity of the TBT assay. The minimal recognition DNA sequence for base-pairing between the RNA component of telomerase and the telomere end is 9 bases—TAGGGTTAG, however, multiple repeats of this sequence more accurately depict the nature of chromosome telomere ends and the scanning nature of enzymes used to achieve accurate base-pair recognition. Telomerase templates include those ranging from 1.5-3 hexameric repeats.\nThree forms of the oligonucleotide were tested. A short version containing a partial (0.5) repeat, a slightly longer version containing 2.5 repeats, and a longer version with 3.5 repeats. […] This increased dynamic range is likely to translate into increased sensitivity of the assay.", "data": [{"substance": "longer version: Long human telomerase recognition nucleotide sequence, 5′ thiol-linked, 3.5 repeats, attached to magnetic bead (DNA TTTTTTAATCCGTCGAGCAGAGTTAGGGTTAGGGTTAGGGTTAGGGTTAG; 5' thiol linker, attached to magnetic bead, further chemistry not given here)", "values": [{"measurement": "absolute signal relative to the background signal (no telomerase extract)", "value": "better absolute signal relative to the background signal"}]}]}
